# Patent publication US20240139162A1, “Benzophenanthridine Alkaloids and Their Methods of Use” (Chengdu Anticancer Bioscience, LTD., priority 2019, published 2024)
# “Also recorded” adds a separate entry of the source. Where two headings read alike, the source gives them in different places.
# How the values were obtained:
# [1] = tested on: all tested cell lines (RPE, Rat1A and human cancer cell lines); experiment: MTT assay, IC50 across all of the cell lines tested; assay type: cell-based
# [2] = tested on: RPE cell lines (RPE NEO, RPE MBH, RPE MBC, RPE MA, RPE MP, RPE MI, RPE MYC Nick); experiment: MTT assay, RPE cell lines expressing oncogenes; assay type: cell-based, human; conditions: RPE cell lines compared with RPE NEO control (FIG. 11)
# [3] = tested on: Rat1A cell lines (Rat1A C, Rat1A MYC, Rat1A E2F1, Rat1A E2F3); experiment: MTT assay, Rat1A cell lines expressing oncogenes; assay type: cell-based; conditions: Rat1A cell lines compared to Rat1A C (FIG. 12)
# Experimental: (§1) Cells were split, plated in appropriate culture media and allowed to adhere. After 18 hours, corynoline and acetylcorynoline were added to a cell line selected from below. At 72 h or 96 h, MTT was added and at 75 h or 99 h, the A570 nm was recorded. The concentration ranged from 0.02 μM to 40 μM.
# (§2) The following Rat1A cell lines were used in these studies: Rat1 A C, Rat1A MYC, Rat1A E2F1, and Rat1A E2F3. The cell line was then engineered as control (C), to overexpress the MYC oncogene (Rat1A-MYC), to overexpress the E2F1 oncogene (Rat1A-E2F1), or to overexpress the E2F3 oncogene (Rat1A-E2F3).
# [4] = tested on: human cancer cell lines; experiment: MTT assay, human cancer cell lines; assay type: cell-based; conditions: with the exception of T98G (FIG. 13)
# Experimental: as §1, with “μM. Taxol was used as a positive control, which has a known IC50 value of less than 0.02 μM in all tested cell lines.” for “μM.”
# The following human cancer cell lines, representing a breadth of cancer subtypes, were used in these studies: Hela, C32, NCI-H23, HCT116 p53-/-, HCT116 wild type, MDA-MB-175IV, MDA-MB-231, MDA-MB-435, MCF-7, A431, H460, TUWI, CaoV-3, T98G, and HTB135.
# [5] = tested on: RPE-MBH cells; experiment: IC50 in RPE-MBH cells (Table 1); assay type: cell-based, human; conditions: Homo sapiens, 72 h, RPE-MBH, treatment 72 h; read-out: IC50
# Experimental: as §1
# The following RPE cell lines were used in these studies: RPE NEO, RPE MBH, RPE MBC, RPE MA, RPE MP, RPE MI, and RPE MYC Nick. This RPE series were derived from human retinal pigment epithelium and then stably transfected with an hTERT expression construct for immortalization. The resulting cell line was then engineered to overexpress the MYC oncogene (RPE-MYC) or a Neomycin selection marker gene (RPE-NEO). In RPE-MYC cells, a variety of other oncogenes such as Myr-AKT, BCL2, ID1 and PI3K^E45k were further introduced individually to generate the cell lines RPE MA, RPE MBC, RPE MI, RPE MP, respectively. As a control, H2BGFP was introduced into RPE-MYC cells to generate RPE MBH.
# (§3) The effect of the compounds chelidonine and protopine on cell division was assessed similarly to corynoline and acetylcorynoline above. As described in Example 6 above, as cells enter and become arrested in mitosis, they detach from the plate surface and appear as rounded cells with a smooth surface membrane. RPE-MBC cells (ectopically expressing oncogenes MYC and Bcl2) were treated with DMSO, chelidonine and protopine, and compared against controls Michael's ketone (MK) and taxol.
# [6] = tested on: Rat1A cells; experiment: IC50 in Rat1A cells (Table 2); assay type: cell-based; conditions: 72 h, Rat1A, treatment 72 h; read-out: IC50
# Experimental: as §1, §2, §3
# [7] = tested on: 3T3 MEF cells; experiment: IC50 in 3T3 MEF cells (Table 2); assay type: cell-based; conditions: Mus musculus, MEF, 72 h, 3T3 MEF, treatment 72 h; read-out: IC50
# Experimental: as §1, §3
# [8] = tested on: RPE MBC cells; experiment: Spindle pole assembly by β-tubulin / Histone H3ser10P immunofluorescence; assay type: cell-based, human
# Experimental: Microtubule assembly, specifically spindle pole assembly, was altered by treatment with acetylcorynoline. RPE MBC cells were treated with acetylcorynoline and Histone H3 Serine 10 Phosphorylation (Histone H3ser10p, shown in FIG. 4 and FIG. 5 in red), β-tubulin (green) and DNA (blue) was analyzed by immunofluorescence microscopy. Histone H3ser10P was used to determine the cells that were in early mitosis (e.g., prometaphase or metaphase). β-tubulin was used to examine microtubule localization and spindle assembly within the cells.
# Similarly to corynoline and acetylcorynoline above, it was determined that microtubule assembly, specifically spindle pole assembly, was altered by treatment with chelidonine.
# [9] = tested on: RPE MBC cells; experiment: Mitotic kinetochore analysis with CREST antibody; assay type: cell-based, human
# Experimental: Following treatment with acetylcorynoline, RPE MBC cells were prepared for immunofluorescence analysis with CREST serum (staining shown in FIG. 6 and FIG. 7 in red).
# [10] = tested on: cells; experiment: Progression through mitosis by time-lapse microscopy; assay type: cell-based
# Excerpt: Time lapse microscopy was used to compare progression through mitosis for cells treated with acetylcorynoline and the DMSO control group, beginning at prophase.
# [11] = tested on: aurora-B kinase; experiment: Phosphorylation of Histone 3 at Ser10 as surrogate of aurora-B kinase activity; assay type: cell-based
# Experimental: Cells were cultured on coverslips in a 6-well plate, fixed with 4% paraformaldehyde and then permeabilized with 0.3% Triton X-100 in PBS. Primary antibody was detected with Texas-Red-conjugated secondary antibodies that were purchased from Jackson ImmunoResearch. After immunostaining, cells were mounted on microscope slides with 4′,6′-diamidino-2-phenylindole (DAPI)-containing Vectashield mounting solution (Vector Laboratories) for detection of fluorescence with an EVOS FL fluorescence microscope (ThermoFisher).
structure (smiles),measurement,setting,value
"CC(=O)O[C@H]1Cc2cc3c(cc2[C@H]2N(C)Cc4c(ccc5c4OCO5)[C@@]12C)OCO3 [Acetylcorynoline, (5bR,6S,12bR)-5b,6,7,12b,13,14-Hexahydro-5b,13-dimethyl-[1,3]benzodioxolo[5,6-c]-1,3-dioxolo[4,5-i]phenanthridin-6-ol 6-acetate]",IC50,"[1]; Homo sapiens, across all of the cell lines tested (FIG. 9), MTT at 72 h or 96 h, read-out: IC50",1 to 31 µM
same,IC50,"[1]; oncogene-expressing RPE cell lines and human cell lines (FIG. 2, FIG. 3), read-out: IC50, majority of values",1 to 31 µM
same,change of IC50 after overexpression of oncogenic factors,[2],"all declined compared with the RPE NEO control, with the exception of the RPE MA cell line"
same,change of IC50 after overexpression of oncogenes,[3],all declined when compared to Rat1 A C
same,IC50 compared with the other compound,[4],higher than those for corynoline
same,IC50,[5],12.6 µM
same,IC50,[6],27.4 µM
same,IC50,[7],23 µM
same,cells in prometaphase (Histone H3ser10P staining),[8]; 6 hours of treatment,Numerous mitotic cells accumulated in prometaphase; also recorded: high numbers of cells arresting in prometaphase
same,spindle formation (β-tubulin staining),[8]; 6 hours of treatment,monopolar spindles were formed; also recorded: abnormal spindle polarization in mitosis
same,spindle formation (β-tubulin staining),[8]; 24 hours of treatment,multipolar spindles were formed; also recorded: multipolar spindle formation in mitosis
same,kinetochore arrangement (CREST staining),[9],kinetochore arrangement was disturbed
same,cytofission,[10]; time lapse,prevented cytofission
same,initiation of cytokinesis,[10]; time lapse,does not affect the initiation of cytokinesis
same,time spent in early mitosis compared to a control cell,[10]; time lapse beginning at prophase,three-times longer
same,phosphorylation of Histone 3 at Ser10,[11],not affected
